# ChEMBL document CHEMBL4765461, “Why All the Fuss about Oxidative Phosphorylation (OXPHOS)?” (J Med Chem, 2020)
# Experiments:
# [1] = Half life in CD1 mouse plasma at 10 mg/kg, ip by LC/MS/MS analysis; type: ADME, organism-based
# [2] = Cmax in CD1 mouse plasma at 10 mg/kg, ip by LC/MS/MS analysis; type: ADME, organism-based; set-up: route intraperitoneal, dose 10 mg/kg
# [3] = Half life in mouse plasma incubated up to 1440 mins by mass spectrometric analysis; type: ADME, cell-free
# [4] = Inhibition of mitochondrial pyruvate carrier in Wistar rat liver mitochondria assessed as reduction in [1-14C]pyruvate uptake preincubated for 2 mins followed by rotenone and [1-14C]pyruvate addition by scintillation counting method
# [5] = Inhibition of mitochondrial complex 1 in human A549 cells assessed as oxygen consumption rate by seahorse analysis; type: cell-based
# [6] = biological target: cAMP and cAMP-inhibited cGMP 3',5'-cyclic phosphodiesterase 10A (Homo sapiens) (UniProt Q9Y233); test: Inhibition of PDE10A (unknown origin)
# [7] = Inhibition of F0F1-ATP synthase in yeast intact mitochondria by LDH/pyruvate kinase coupled enzyme assay; set-up: species or system Saccharomyces cerevisiae
# [8] = Inhibition of yeast mitochondrial F0F1-ATP synthase by LDH/pyruvate kinase coupled enzyme assay; set-up: species or system Saccharomyces cerevisiae
# [9] = Inhibition of mitochondrial complex 1 in Sprague-Dawley rat heart mitochondria by spectrophotometric method
# [10] = Inhibition of mitochondrial complex 1 in bovine heart mitochondria incubated for 3 hrs and measured up to 30 mins by colorimetric method
# [11] = Inhibition of mitochondrial complex 1 in human NCI-H460 cells assessed as reduction in oxygen consumption rate by seahorse analysis; type: cell-based
# [12] = Inhibition of mitochondrial complex1 (unknown origin); set-up: species or system Homo sapiens
# [13] = Inhibition of mitochondrial complex 1 in human NCI-H460 cells assessed as reduction in cell proliferation incubated for 48 hrs under galactose containing medium by cell titer glow assay; type: cell-based; conditions: NCI-H460, 48 h
# [14] = Inhibition of mitochondrial complex 1 in human PC-3 cell mitochondria assessed as reduction in oxygen consumption using glutamate/malate/ADP as substrate by oxygen sensitive fluorescent dye based assay
# [15] = Inhibition of mitochondrial complex 1 in human MiaPaCa-2 cells assessed as reduction in oxygen consumption incubated for 24 hrs; type: cell-based; conditions: mia paca-2
# [16] = Ratio of drug level in ICR mouse brain to plasma at 30 mg/kg, po by LC-MS analysis; type: ADME, organism-based; conditions: read-out: BPR
# [17] = Antiproliferative activity against human H2030-BrM3 cells by IncuCyte live-cell imaging assay; type: functional, cell-based
# [18] = test system: A549; test: Antiproliferative activity against human A549 cells by IncuCyte live-cell imaging assay; type: functional, cell-based
# [19] = Inhibition of Cytochrome b-c1 complex I304M/R306K double mutant in Rhodobacter capsulatus MT-RBC1
# [20] = test system: MCF7; test: Inhibition of mammosphere formation in human MCF7 cells incubated for 5 days; type: functional, cell-based; conditions: MCF7, 120 h
# [21] = Growth inhibition of mouse GBM cells incubated for 4 days by Celltiter glo assay; type: functional, cell-based; conditions: 96 h
# [22] = test system: GBM; test: Growth inhibition of patient derived GBM cells incubated for 4 days by Celltiter glo assay; type: functional, cell-based; conditions: Homo sapiens, 96 h
# [23] = Half life in ICR/CD-1 mouse S9 fraction incubated for 0 to 240 mins in presence of NADPH regenerating system by HPLC/MS analysis; type: ADME, subcellular; conditions: time 0-240 min
# [24] = Oral bioavailability in ICR mouse at 30 mg/kg; type: ADME, organism-based; conditions: in vivo
# cAMP and cAMP-inhibited cGMP 3',5'-cyclic phosphodiesterase 10A (Homo sapiens), sequence (Q9Y233 whole entry): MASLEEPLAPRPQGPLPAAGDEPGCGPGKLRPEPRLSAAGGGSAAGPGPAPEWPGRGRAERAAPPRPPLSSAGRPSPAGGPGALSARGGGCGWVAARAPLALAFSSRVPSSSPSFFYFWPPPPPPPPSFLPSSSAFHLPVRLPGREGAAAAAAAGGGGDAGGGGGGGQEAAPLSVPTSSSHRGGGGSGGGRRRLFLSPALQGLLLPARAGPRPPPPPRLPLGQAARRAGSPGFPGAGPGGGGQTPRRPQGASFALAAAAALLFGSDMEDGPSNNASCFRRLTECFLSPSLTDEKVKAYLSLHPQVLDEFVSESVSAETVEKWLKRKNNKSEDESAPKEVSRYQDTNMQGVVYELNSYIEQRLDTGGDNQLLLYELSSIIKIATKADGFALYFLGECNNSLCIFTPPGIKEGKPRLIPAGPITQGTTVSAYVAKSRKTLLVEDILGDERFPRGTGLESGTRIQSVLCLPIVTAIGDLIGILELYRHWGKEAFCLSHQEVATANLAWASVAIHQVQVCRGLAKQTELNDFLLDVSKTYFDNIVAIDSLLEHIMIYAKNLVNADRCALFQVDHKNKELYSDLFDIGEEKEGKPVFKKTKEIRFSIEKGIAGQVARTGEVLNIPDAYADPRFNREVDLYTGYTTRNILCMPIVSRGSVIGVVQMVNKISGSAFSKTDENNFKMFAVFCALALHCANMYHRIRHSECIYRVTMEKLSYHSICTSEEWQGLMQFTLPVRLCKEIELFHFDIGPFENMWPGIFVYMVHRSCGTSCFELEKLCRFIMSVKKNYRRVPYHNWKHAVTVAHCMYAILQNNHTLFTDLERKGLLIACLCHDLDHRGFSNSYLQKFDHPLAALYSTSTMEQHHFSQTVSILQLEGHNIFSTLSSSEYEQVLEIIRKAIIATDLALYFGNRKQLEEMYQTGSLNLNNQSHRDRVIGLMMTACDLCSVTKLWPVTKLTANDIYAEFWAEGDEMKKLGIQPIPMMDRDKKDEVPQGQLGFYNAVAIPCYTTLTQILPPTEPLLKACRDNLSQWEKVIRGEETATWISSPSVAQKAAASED
smiles,measurement,setting,value
CC(C)[C@@H]1CC[C@@H](C)C[C@H]1OC(=O)Cn1c(-c2cccc(C(F)(F)F)c2)[n+](C)c2ccccc21.[I-],half-life,[1],909 min
same,Cmax,[2],375 ng/g
same,half-life,[3],306 min
O=C(O)c1nn(Cc2ccc(Cl)cc2Cl)c2ccccc12 [LONIDAMINE],Ki,[4],2500 nM
COc1cc2ccnc(Cc3cccc4ccccc34)c2cc1OC,IC50,[5],7.2 µM
same,IC20,[6],13.4 µM
COC[C@@H](C[C@H]1O[C@@](O)([C@H](O)[C@@H]2C[C@H](OC)[C@@H](O)CC/C=C(C)/C=C/[C@@H](O[C@@H]3O[C@@H](C)[C@H](OC)[C@@H](O)[C@@H]3O)[C@H](C)/C=C(C)/C=C(C)/C=C(\C)C(=O)O2)[C@H](C)[C@@H](O)[C@H]1C)O[C@H]1C[C@](C)(O)[C@@H](O[C@H]2C[C@@H](OC)[C@H](O)[C@@H](C)O2)[C@H](C)O1,Ki,[7],5 µM
same,Ki,[8],4 µM
Cc1ccc(Sc2cccc3[nH]c4nc(N)nc(N)c4c23)cc1,IC50,[9],9.9 µM
FC(F)(F)c1ccc(/C=C/c2nc(COc3ccc(CCCCn4ccnn4)cc3)co2)cc1 [MUBRITINIB],IC50,[10],51 nM
Cc1nc(-c2nc(-c3ccc(OC(F)(F)F)cc3)no2)nn1Cc1cccc(N2CCC(S(C)(=O)=O)CC2)c1,IC50,[11],1.4 nM
C=C(C)[C@H]1Cc2c(ccc3c2O[C@@H]2COc4cc(OC)c(OC)cc4[C@@H]2C3=O)O1 [ROTENONE],IC50,[12],100 nM
Cc1cc(-c2nc(-c3ccc(OC(F)(F)F)cc3)no2)nn1Cc1ccnc(N2CCN(C3CC3)CC2)c1,EC50,[13],3 nM
same,IC50,[14],10 nM
CN(C)C(=N)NC(=N)N [METFORMIN],IC50,[15],1100 µM
same,Kp,[16],0.1
same,IC50,[17],139 µM
same,IC50,[18],208 µM
O=C(NCCCCCCCCCC[P+](c1ccccc1)(c1ccccc1)c1ccccc1)c1nn(Cc2ccc(Cl)cc2Cl)c2ccccc12,IC50,[17],0.74 µM
same,IC50,[18],0.69 µM
O=C1C(O)=C([C@H]2CC[C@H](c3ccc(Cl)cc3)CC2)C(=O)c2ccccc21 [ATOVAQUONE],IC50,[19],10 nM
same,IC50,[20],1000 nM
N=C(N)NC(=N)NCCCCCCCCCC[P+](c1ccccc1)(c1ccccc1)c1ccccc1,IC50,[15],0.4 µM
COc1ccc(Cc2nccc3cc(OC)c(OC)cc23)cc1OC [PAPAVERINE],IC50,[5],15.4 µM
same,IC20,[6],0.65 µM
CCc1n(CC(=O)O[C@@H]2C[C@H](C)CC[C@H]2C(C)C)c2ccccc2[n+]1C.[Cl-],IC50,[21],150 nM
same,IC50,[22],1000 nM
same,half-life,[23],217 min
same,half-life,[3],4 min
N=C(NC(=N)N1CCCC1)Nc1ccc(OC(F)(F)F)cc1 [LIXUMISTAT],bioavailability,[24],72.9%
same,Kp,[16],0.37
